Source: patent US10752626B2, “Iso-citrate dehydrogenase (IDH) inhibitor” (SHANGHAI METON PHARMACEUTICAL CO., LTD, priority 2016, dated 2020)

Target: IDH1 R132H (Homo sapiens (Human), UniProt O75874, R132H)
Assay: Biochemical assay for inhibition of mutant IDH1 R132H
Details: tested in triplet
Source text: The present disclosure provides a biochemical assay method for detecting the IDH inhibition and selectivity of the compounds by detecting IDH enzyme activity directly.
Wild-type IDH enzyme could convert NADP^+ to NADPH when it catalyzes the α-KG producing reaction. Mutant IDH enzyme could convert NADPH to NADP^+ when it catalyzes the D-2-HG producing reaction. So the activity of wild-type and mutant IDH1/2 could be measured by monitoring NADPH level change: in the reaction catalyzed by wild-type IDH1/2, the newly generated NADPH is utilized instantly by coupled diaphorase-resazurin reaction to generate resorufin which is fluorescent (at Excitation 544 nm, Emission 590 nm) and thus NADPH is monitored indirectly; while in the reaction catalyzed by mutant IDH1/2, NADPH is directly monitored as it is fluorescent (at Excitation 340 nm, Emission 460 nm). By monitoring the change of NADPH level in the reaction, the enzyme activity could be determined rapidly and efficiently, IC50 of a compound could also be assayed.
The test compounds were prepared into 50 mM stock solutions in DMSO and stored at −20° C. Each test compound stock was further diluted to obtain a 100× stock solution at a concentration of 200 μM, 100 μM, 50 μM, 25 μM, 12.5 jμM, 6.25 μM and 3.125 μM, respectively, for the final use on the day of test.
Inhibition of Mutant IDHJ (R132H or R132C):
Solution A was prepared by combining 1 M Tris-HCl pH7.5 (300 μL), 5 M NaCl (450 μL), 1 M MgCl2 (150 μL), 1 M DTT (15 μL), 20 mg/mL BSA (37.5 μL), 20 mM NADPH (20 μL), and 0.5 mM α-KG (40 μL), followed by adding deionized water to a final volume of 15 mL.
Reaction buffer was prepared by combining 1 M Tris-HCl pH 7.5 (200 μL), 5 M NaCl (300 μL), 1 M MgCl2 (100 μL), 1 M DTT (10 μL) and 20 mg/mL BSA (25 μL), followed by adding deionized water to a final volume of 10 mL.
Solution B was prepared by combining the reaction buffer (5 mL) and […] IDH1-R132H (5.21 μL) or 107 μM IDH1-R132C (4.67 μL).
148 μL Solution A was added into each sample well of a 96-well plate P1, and then 2 μL of the test compound solution at each concentration and 2 μL of DMSO (negative control/blank) were added into individual sample well respectively. 50 μL of Solution B was added into each of the sample wells having test compounds and one sample well having DMSO only, and 50 μL of reaction buffer was added into another sample well having DMSO only, respectively. P1 was put into BioTek Synergy H4 Microplate reader (BioTek Instruments Inc., Winooski, U.S.), and the program was set as follows: 37° C., shake plate 5 seconds, run kinetic mode, total detection time 20 min, detection intervals 40 seconds, detection mode fluorescence (at Excitation 340 nm, Emission 460 nm). The data were exported, the relative enzyme activity and the half-maximal inhibitory concentration (IC50) for the test compound were calculated. Relative enzyme activity was calculated as the absolute value of the slope of the Emission 460 reads of each well plotted against time (which represents the conversion rate of ca-KG to 2-HG through IDH1 modulated utilization of NADPH). The Dose-response curve was drawn and the IC50 was calculated via fitting. The IDH inhibition and selectivity of each test compound can be evaluated according to the effect of the compounds on the IDH enzyme activity.
The IDH inhibition activity of the compounds were assessed according to Test 5 of the Biological evaluation section. The test for mutant IDH1 R132H/R132C inhibition of each compound was carried out in triplet. For IDH1 R132H, the enzyme activity of exemplary Compounds 16, 21, 22, 23, 24 and 31 is plotted as a function of logarithm of the concentration of the compound in FIGS. 8A-8C, 9A-9C, 10A-10C, 11A-11C, 12A-12C and 13A-13C, respectively. […]

Chain of IDH1 R132H (O75874 whole entry R132H): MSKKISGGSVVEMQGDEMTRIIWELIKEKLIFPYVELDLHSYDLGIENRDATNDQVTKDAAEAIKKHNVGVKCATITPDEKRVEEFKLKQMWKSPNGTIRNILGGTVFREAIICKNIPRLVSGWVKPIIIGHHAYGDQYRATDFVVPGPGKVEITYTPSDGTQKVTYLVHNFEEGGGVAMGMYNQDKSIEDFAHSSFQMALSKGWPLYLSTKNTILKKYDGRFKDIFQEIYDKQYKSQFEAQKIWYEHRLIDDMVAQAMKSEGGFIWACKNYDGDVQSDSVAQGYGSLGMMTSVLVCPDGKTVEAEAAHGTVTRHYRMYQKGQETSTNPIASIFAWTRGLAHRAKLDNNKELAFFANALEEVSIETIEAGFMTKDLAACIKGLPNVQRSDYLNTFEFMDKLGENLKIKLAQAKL

Compound	IC50 [µM]
CCN1Cc2c(ccnc2N[C@@H](C)c2ccc(Oc3ccc(C)cc3)cc2)C1=O [Compound 16, (S)-2-ethyl-4-(1-(4-(p-tolyloxy)phenyl)ethylamino)-2,3-dihydro-1H-pyrrolo [3,4-c]pyridin-1-one]	< 1
CCN1Cc2c(ccnc2N[C@@H](C)c2ccc(Oc3ccccc3)c(F)c2)C1=O [Compound 23, (S)-2-ethyl-4-((1-(3-fluoro-4-phenoxyphenyl)ethyl)amino)-2,3-dihydro-1H-pyrrolo[3,4-c]pyridin-1-one]	< 1
